Assay results taken from ChEMBL document CHEMBL1137881, “Synthesis of acyloxymethyl ester prodrugs of the transferable protein farnesyl transferase substrate farnesyl methylenediphosphonate” (Bioorg Med Chem Lett, 2004).

Target: Protein farnesyltransferase (Homo sapiens, UniProt P49354+P49356)
Assay: Inhibition of Farnesyltransferase
Format: protein-complex assay

IC50: 160 nM
SMILES: CC(C)=CCC/C(C)=C/CC/C(C)=C/COP(=O)(O)CP(=O)(O)O [FARNESYL METHYLENEDIPHOSPHONATE]
